Measurements published in patent US20110053883A1, “AGENT THAT MODULATES PHYSIOLOGICAL CONDITION OF PESTS, INVOLVED IN INSECT C-JUN AMINO-TERMINAL KINASE ACTIVITY” (SUMITOMO CHEMICAL COMPANY, LIMITED, priority 2005, published 2011).
Read-outs that look alike come from different tables or passages of the source.

What was measured:
Aphis gossypii = test: Pesticidal activity test, rearing on artificial feed containing the test compound; format: in vivo; conditions: 144 h, read-out: Determination result of pesticidal activity; for pest or weed control at 50 ppm: test compound in DMSO to a final concentration of 50 ppm
Description: A sterilized artificial feed having the following composition (Table 3) was prepared. Then, according to the same manner as that of the method described in Handbook of Insect Rearing Vol. 1 (Elsevier Science Publishers 1985) pp. 35 to pp. 36 except that a test compound dissolved in DMSO to a final concentration of 640 μM was added at 0.5 volume of the artificial feed, and components were mixed, Aphis gossypii was reared. […] Controlling value(%)={1−(Cb×Tai)/(Cai×Tb)}×100 Letters in the equation represent the following meanings. Cb: Number of surviving worms before treatment in non-treated section Cai: Number of surviving worms at observation in non-treated section Tb: Number of surviving worms before treatment in treated section Tai: Number of surviving worms at observation in treated section […]

[1] = biological target: aphid c-Jun NH2-terminal kinase (Aphis gossypii, UniProt A0A9P0JGV4); test: In vitro aphid c-Jun NH2-terminal kinase activity measurement (IMAP fluorescence polarization, peptide substrate); format: biochemical, cotton aphid (Aphis gossypii); conditions: for inhibition at 10 µM: test compound at final concentration of 10 μM, relative to DMSO, read-out: Activity of inhibiting c-Jun NH2-terminal kinase activity (inhibition degree (%) at 10 μM addition); for IC50: concentrations 100 μM to 0.03 μM, XLfit, read-out: Activity of inhibiting c-Jun NH2-terminal kinase activity (IC50, (μM))
Sequence of aphid c-Jun NH2-terminal kinase (A0A9P0JGV4 entry or part of it): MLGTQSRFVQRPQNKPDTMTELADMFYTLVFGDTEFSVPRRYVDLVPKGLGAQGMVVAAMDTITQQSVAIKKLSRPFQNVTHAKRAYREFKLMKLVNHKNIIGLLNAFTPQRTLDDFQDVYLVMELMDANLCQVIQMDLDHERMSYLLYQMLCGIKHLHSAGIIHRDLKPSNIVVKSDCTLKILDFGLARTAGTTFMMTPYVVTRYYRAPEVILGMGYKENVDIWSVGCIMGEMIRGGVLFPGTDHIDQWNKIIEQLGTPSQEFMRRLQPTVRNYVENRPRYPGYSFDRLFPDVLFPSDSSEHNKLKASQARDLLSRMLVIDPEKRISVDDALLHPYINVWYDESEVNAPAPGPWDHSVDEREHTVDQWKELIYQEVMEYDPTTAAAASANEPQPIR
Description: Selection of a compound which modulates the activity of a c-Jun NH2-terminal kinase was performed in a system where the activity of a c-Jun NH2-terminal kinase which is modulated by adding a test compound to an in vitro reaction system using the aphid c-Jun NH2-terminal kinase prepared in Example 7 is measured and evaluated.
Measurement of the activity of the aphid c-Jun NH2-terminal kinase was performed using IMAP screening Express Kit with progressive Binding system (manufactured by Molecular Device) according to a method described in the manual annexed to the system and employing, as a substrate, a peptide comprising the amino acid sequence of SEQ ID NO: 13 to which biotin was added at the amino-terminus, and a peptide comprising the amino acid sequence of SEQ ID NO: 14 in which the carboxyl-terminus was fluorescently labeled.
For measuring the activity, the activity of the aphid c-Jun NH2-terminal kinase was measured when a test compound dissolved in DMSO was contained to a final concentration of 10 μM. In addition, the activity of the aphid c-Jun NH2-terminal kinase was measured when DMSO was contained in place of a test compound. Then, a ratio (%) of a measured value of the activity of the aphid c-Jun NH2-terminal kinase when a test compound dissolved in DMSO was contained, relative to a measured value of the activity of aphid c-Jun NH2-terminal kinase when DMSO was contained in place of the test compound was calculated, and a value obtained by subtracting the calculated value from 100% was adopted as an inhibition degree (%). Results in each test compound are shown in Table 4 in Example 9 together with results of Example 9.
The activity of aphid c-Jun NH2-terminal kinase was measured when a test compound dissolved in DMSO was contained to a final concentration of each concentration of 100 μM, 30 μM, 10 μM, 3 μM, 1 μM, 0.3 μM, 0.1 μM or 0.03 μM. IC50 (μM) was calculated from the result of each concentration at each test compound using a concentration-dependent test analyzing software XL fit (manufactured by idbs). Results are shown in Table 5 in Example 10 together with results of Example 9.

[2] = test compound in DMSO to a final concentration of 640 μM, in artificial feed, surviving Aphis gossypii six days after rearing
[3] = in artificial feed, surviving Aphis gossypii six days after rearing

| SMILES | pest or weed control at 640 µM (Aphis gossypii; Aphis gossypii) [%] | inhibition at 10 µM [1] [%] | pest or weed control at 640 µM (Aphis gossypii; [2]) [%] | pest or weed control at 50 ppm (Aphis gossypii; [3]) [%] | IC50 [1] [µM] |
| --- | --- | --- | --- | --- | --- |
| CC(C)(C)n1nc(-c2cccc3ccccc23)c2c(N)ncnc21 [4-amino-1-tert-butyl-3-(1-naphthyl) pyrazolo(3,4-d) pyrimidine, reference compound] | > 30 | 68 |  |  |  |
| O=C1c2ccccc2-c2n[nH]c3cccc1c23 [Anthra[1,9-CD] pyrazole-6(2H)-one, reference compound] |  | 83 | > 30 |  |  |
| O=C1NC(=O)C(c2c[nH]c3ccccc23)=C1c1c[nH]c2ccccc12 [Arcyriarubin A, reference compound] |  | 73 | > 30 |  |  |
| O=C1CC2(Oc3ccccc3O2)C(=O)O1 [DB04029] |  |  |  | < 30 | > 100 |
| OCC1OC(n2cnc3c(O)ncnc32)C(O)C1O (stereo not shown) [DC05429] |  |  |  | < 30 | > 100 |
| Sc1ncnc2nc[nH]c12 [DD08068] |  |  |  | < 30 | > 100 |
| COc1ccc(C(=O)c2ccccc2)c(O)c1 [DD08100] |  |  |  | < 30 | > 100 |
| CCOC(=O)/C(=C(/F)SCC(C)=O)C(F)(F)F [DF06524] |  |  |  | > 30 | 47.9 |
